Patent US20060276464A1, “Diarylsulfone sulfonamides and use thereof” (Wyeth, priority 2005, published 2006)
Like-named read-outs stand apart in the source and are kept apart here.

Biological target: T1, SFRP-1 (Homo sapiens, UniProt Q8N474)
T1 sequence (Q8N474 32-314): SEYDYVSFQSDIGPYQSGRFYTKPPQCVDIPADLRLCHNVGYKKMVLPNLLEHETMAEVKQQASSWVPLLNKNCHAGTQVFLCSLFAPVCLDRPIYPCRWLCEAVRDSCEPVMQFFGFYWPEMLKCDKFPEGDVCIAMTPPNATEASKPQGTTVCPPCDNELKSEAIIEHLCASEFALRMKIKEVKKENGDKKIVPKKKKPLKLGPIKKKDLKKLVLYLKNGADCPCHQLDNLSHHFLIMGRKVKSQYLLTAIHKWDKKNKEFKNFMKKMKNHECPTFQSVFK
Assay: Cell-based assay for in vitro measurement of SFRP-1/SARP2 antagonist activity (U2OS cells co-transfected with 16x TCF-tk-Luciferase reporter, Wnt and hSFRP-1);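 note: U2OS cells co-transfected with a TCF-tk luciferase reporter, a Wnt vector, hSFRP-1 or empty vector and CMV-βgal, luciferase luminescence read in cell lysates alongside βgal activity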
Details: U2OS

[1] = read-out: Fold Induction with SFRP-1, Conc 30 μM, with SFRP-1, fold induction over SFRP-1 control, single dose
[2] = read-out: Fold Induction without SFRP-1, Conc 30 μM, without SFRP-1, single dose
[3] = read-out: Fold Induction with SFRP-1, Conc 15 μM, with SFRP-1, fold induction over SFRP-1 control, single dose
[4] = read-out: Fold Induction without SFRP-1, Conc 15 μM, without SFRP-1, single dose

fold induction at 15 µM [3] | fold induction at 15 µM [4] | SMILES | also measured
 |  | Cc1ccc(S(=O)(=O)c2ccccc2)cc1S(=O)(=O)NCCc1ccccc1Cl [Example 31, N-[2-(2-chlorophenyl)ethyl]-2-methyl-5-(phenylsulfonyl)benzenesulfonamide] | fold induction at 30 µM [1]: 0.4; fold induction at 30 µM [2]: 0.5
 |  | N#CCNS(=O)(=O)c1cc(S(=O)(=O)c2ccccc2)ccc1Cl [Example 663, 2-chloro-N-(cyanomethyl)-5-(phenylsulfonyl)benzenesulfonamide] | fold induction at 10 µM (read-out: Fold Induction with SFRP-1, U2OS cells, single dose 10 μM, luciferase reporter, fold induction over SFRP-1 control): 1
1.7 | 0.8 | CCc1ccccc1S(=O)(=O)c1ccc(C)c(S(=O)(=O)NCCc2ccccn2)c1 [Example 431, 5-[(2-ethylphenyl)sulfonyl]-2-methyl-N-(2-pyridin-2-ylethyl)benzenesulfonamide] | 
3 | 1 | Cc1cc(C)c(S(=O)(=O)c2ccc(F)cc2)cc1S(=O)(=O)NC1CCOCC1 [Example 332, 5-[(4-fluorophenyl)sulfonyl]-2,4-dimethyl-N-(tetrahydro-2H-pyran-4-yl)benzenesulfonamide] | 
 |  | Cc1ccc(S(=O)(=O)c2ccccc2)cc1S(=O)(=O)NC1CCN(C(=O)NC2CCCCC2)CC1 [Example 491, N-cyclohexyl-4-({[2-methyl-5-(phenylsulfonyl)phenyl]sulfonyl}amino)piperidine-1-carboxamide] | fold induction at 15 µM (read-out: Fold Induction with SFRP-1, Conc 15 μM, single dose, luciferase reporter, fold induction over SFRP-1 control, cells with SFRP-1): 1.1; fold induction at 15 µM (read-out: Fold Induction without SFRP-1, Conc 15 μM, single dose, luciferase reporter, cells without SFRP-1 (specificity control)): 1
 |  | CCN(CC)CCCNS(=O)(=O)c1cccc(S(=O)(=O)c2ccccc2)c1 [Example 198, N-[3-(diethylamino)propyl]-3-(phenylsulfonyl)benzenesulfonamide] | fold induction at 30 µM [1]: 1.1; fold induction at 30 µM [2]: 1.3
 |  | Cc1ccc(S(=O)(=O)c2ccc(C)c(S(=O)(=O)NC[C@H](C)c3ccccc3)c2)cc1 [Example 254, 2-methyl-5-[(4-methylphenyl)sulfonyl]-N-[(2R)-2-phenylpropyl]benzenesulfonamide] | fold induction at 20 µM (read-out: Fold Induction with SFRP-1, Conc 20 μM, with SFRP-1, fold induction over SFRP-1 control, single dose): 3; fold induction at 20 µM (read-out: Fold Induction without SFRP-1, Conc 20 μM, without SFRP-1, single dose): 1
1.9 | 1.1 | Cc1ccc(S(=O)(=O)c2ccccc2)cc1S(=O)(=O)NC1CCN(C(=O)C2CC2)CC1 [Example 475, N-[1-(cyclopropylcarbonyl)piperidin-4-yl]-2-methyl-5-(phenylsulfonyl)benzenesulfonamide] | 
0.9 | 1 | C=CCN(CCc1ccc(OC)c(OC)c1)S(=O)(=O)c1cc(S(=O)(=O)c2ccccc2)ccc1C [Example 273, N-allyl-N-[2-(3,4-dimethoxyphenyl)ethyl]-2-methyl-5-(phenylsulfonyl)benzenesulfonamide] | 
2.8 | 1 | Cc1cc(C)cc(S(=O)(=O)c2ccc(C)c(S(=O)(=O)NCCCn3ccnc3)c2)c1 [Example 343, 5-[(3,5-dimethylphenyl)sulfonyl]-N-[3-(1H-imidazol-1-yl)propyl]-2-methylbenzenesulfonamide] | 
2.3 | 0.8 | Cc1ccc(S(=O)(=O)c2ccc(Cl)cc2)cc1S(=O)(=O)NCCCn1ccnc1 [Example 292, 5-[(4-chlorophenyl)sulfonyl]-N-[3-(1H-imidazol-1-yl)propyl]-2-methylbenzenesulfonamide] | 
2.2 | 1.2 | CCN(CC)CCCNS(=O)(=O)c1cc(S(=O)(=O)c2ccccc2)ccc1C [Example 218, N-[3-(diethylamino)propyl]-2-methyl-5-(phenylsulfonyl)benzenesulfonamide] | 
2 | 1.3 | CCc1ccc(S(=O)(=O)c2ccccc2)cc1S(=O)(=O)N1CCN(CCN(CC)CC)CC1 [Example 286, N,N-diethyl-N-[2-(4-{[2-ethyl-5-(phenylsulfonyl)phenyl]sulfonyl}piperazin-1-yl)ethyl]amine] | 
1.9 | 0.9 | Cc1ccc(S(=O)(=O)c2ccc(F)cc2)cc1S(=O)(=O)NCCC1CCOCC1 [Example 309, 5-[(4-fluorophenyl)sulfonyl]-2-methyl-N-(2-tetrahydro-2H-pyran-4-ylethyl)benzenesulfonamide] | 
